ChEMBL document CHEMBL3774360, “Potent multitarget FAAH-COX inhibitors: Design and structure-activity relationship studies” (Eur J Med Chem, 2016)
Calls of active or inactive are those of the source. The rule behind the calls is not given here.

Tests used:
[1] = species on record: Homo sapiens; assay: Binding affinity to P2X receptor (unknown origin) at 10 uM by radioligand binding assay
[2] = biological target: Progesterone receptor (Homo sapiens) (UniProt P06401); assay: Binding affinity to human progesterone receptor at 10 uM by radioligand binding assay
[3] = species on record: Homo sapiens; assay: Binding affinity to L-type calcium channel dihydropyridine binding site (unknown origin) at 10 uM by radioligand binding assay
[4] = species on record: Homo sapiens; assay: Binding affinity to ATP-sensitive potassium channel (unknown origin) at 10 uM by radioligand binding assay
[5] = species on record: Homo sapiens; assay: Binding affinity to small conductance calcium-activated potassium channel (unknown origin) at 10 uM by radioligand binding assay
[6] = species on record: Homo sapiens; assay: Binding affinity to sodium channel site 2 (unknown origin) at 10 uM by radioligand binding assay
[7] = species on record: Homo sapiens; assay: Binding affinity to GABA-gated chloride channel (unknown origin) at 10 uM by radioligand binding assay
[8] = biological target: Sodium-dependent dopamine transporter (Homo sapiens) (UniProt Q01959); assay: Binding affinity to human dopamine transporter at 10 uM by radioligand binding assay
Sodium-dependent dopamine transporter (Homo sapiens), sequence (Q01959 whole entry): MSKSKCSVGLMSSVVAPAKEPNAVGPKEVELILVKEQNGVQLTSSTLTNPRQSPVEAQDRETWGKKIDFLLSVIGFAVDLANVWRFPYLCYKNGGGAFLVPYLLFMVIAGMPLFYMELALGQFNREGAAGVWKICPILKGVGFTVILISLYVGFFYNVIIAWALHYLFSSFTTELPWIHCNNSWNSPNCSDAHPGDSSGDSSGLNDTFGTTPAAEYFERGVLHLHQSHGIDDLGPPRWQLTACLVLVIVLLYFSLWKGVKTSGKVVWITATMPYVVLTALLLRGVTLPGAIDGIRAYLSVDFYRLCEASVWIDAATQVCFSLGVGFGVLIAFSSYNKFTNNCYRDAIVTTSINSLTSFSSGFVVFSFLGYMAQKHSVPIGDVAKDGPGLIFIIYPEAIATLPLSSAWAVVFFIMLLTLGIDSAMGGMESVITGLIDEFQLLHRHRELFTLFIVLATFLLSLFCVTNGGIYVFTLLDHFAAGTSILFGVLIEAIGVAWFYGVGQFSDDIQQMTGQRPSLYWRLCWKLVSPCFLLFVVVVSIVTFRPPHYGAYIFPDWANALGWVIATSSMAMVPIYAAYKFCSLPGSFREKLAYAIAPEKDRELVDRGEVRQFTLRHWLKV

[9] = biological target: High affinity choline transporter 1 (Homo sapiens) (UniProt Q9GZV3); assay: Binding affinity to human CHT1 transporter at 10 uM by radioligand binding assay
[10] = biological target: Sodium-dependent serotonin transporter (Homo sapiens) (UniProt P31645); assay: Binding affinity to human 5-HT transporter at 10 uM by radioligand binding assay
[11] = biological target: Thromboxane A2 receptor (Homo sapiens) (UniProt P21731); assay: Agonist activity against human TP receptor at 10 uM
[12] = biological target: Transient receptor potential cation channel subfamily V member 1 (Homo sapiens) (UniProt Q8NER1); assay: Agonist activity against human TRPV1 receptor at 10 uM
Transient receptor potential cation channel subfamily V member 1 (Homo sapiens), sequence (Q8NER1 whole entry): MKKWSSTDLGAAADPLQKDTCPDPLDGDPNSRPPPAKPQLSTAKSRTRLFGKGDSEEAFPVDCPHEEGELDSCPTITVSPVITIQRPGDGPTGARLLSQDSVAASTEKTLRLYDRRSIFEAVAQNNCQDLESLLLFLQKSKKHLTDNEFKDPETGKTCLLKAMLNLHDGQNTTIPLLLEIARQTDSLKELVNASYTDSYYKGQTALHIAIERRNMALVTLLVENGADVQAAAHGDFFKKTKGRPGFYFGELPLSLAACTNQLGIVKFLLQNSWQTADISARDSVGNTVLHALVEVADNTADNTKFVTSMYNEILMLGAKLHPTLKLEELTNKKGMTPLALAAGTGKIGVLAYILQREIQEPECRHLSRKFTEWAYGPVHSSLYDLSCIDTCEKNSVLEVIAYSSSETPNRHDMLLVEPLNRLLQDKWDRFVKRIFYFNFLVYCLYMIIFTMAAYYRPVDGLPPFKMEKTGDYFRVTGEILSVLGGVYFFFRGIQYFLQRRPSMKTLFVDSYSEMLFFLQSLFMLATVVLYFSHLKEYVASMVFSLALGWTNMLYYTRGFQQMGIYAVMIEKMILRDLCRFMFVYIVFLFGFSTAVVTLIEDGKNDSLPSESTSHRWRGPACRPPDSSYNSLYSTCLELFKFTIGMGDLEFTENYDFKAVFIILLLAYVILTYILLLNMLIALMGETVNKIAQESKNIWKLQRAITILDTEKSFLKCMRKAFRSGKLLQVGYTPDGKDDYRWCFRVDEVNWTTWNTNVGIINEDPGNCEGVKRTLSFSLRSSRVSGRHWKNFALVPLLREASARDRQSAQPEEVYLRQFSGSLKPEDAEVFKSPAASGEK

[13] = biological target: Transient receptor potential cation channel subfamily V member 1 (Homo sapiens) (UniProt Q8NER1); assay: Antagonist activity against human TRPV1 receptor at 10 uM; set-up: scale not given: the % may be the effect or the level left
[14] = biological target: Polyunsaturated fatty acid lipoxygenase ALOX15B (Homo sapiens) (UniProt O15296); assay: Binding affinity to recombinant human 15-Lipoxygenase-2 at 10 uM
Polyunsaturated fatty acid lipoxygenase ALOX15B (Homo sapiens), sequence (O15296 whole entry): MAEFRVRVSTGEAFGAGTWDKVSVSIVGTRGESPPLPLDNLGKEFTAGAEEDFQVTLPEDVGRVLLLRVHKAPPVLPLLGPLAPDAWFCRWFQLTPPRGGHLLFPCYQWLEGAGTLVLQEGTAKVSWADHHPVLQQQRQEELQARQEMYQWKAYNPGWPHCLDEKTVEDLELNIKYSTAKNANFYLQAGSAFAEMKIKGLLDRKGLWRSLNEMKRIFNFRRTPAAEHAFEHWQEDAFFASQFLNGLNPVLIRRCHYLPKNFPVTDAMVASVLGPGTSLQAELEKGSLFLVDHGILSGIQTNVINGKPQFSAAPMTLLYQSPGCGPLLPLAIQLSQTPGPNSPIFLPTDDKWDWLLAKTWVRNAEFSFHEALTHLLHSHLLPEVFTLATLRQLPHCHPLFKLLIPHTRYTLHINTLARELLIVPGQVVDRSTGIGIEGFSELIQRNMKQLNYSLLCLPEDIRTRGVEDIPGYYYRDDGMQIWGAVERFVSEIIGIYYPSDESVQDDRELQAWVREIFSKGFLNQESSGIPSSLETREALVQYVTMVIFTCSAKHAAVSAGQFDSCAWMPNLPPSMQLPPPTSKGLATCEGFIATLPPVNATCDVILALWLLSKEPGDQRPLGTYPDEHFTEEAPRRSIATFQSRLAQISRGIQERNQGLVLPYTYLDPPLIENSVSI

[15] = biological target: cGMP-inhibited 3',5'-cyclic phosphodiesterase 3A (Homo sapiens) (UniProt Q14432); assay: Binding affinity to human PDE3A at 10 uM
cGMP-inhibited 3',5'-cyclic phosphodiesterase 3A (Homo sapiens), sequence (Q14432 whole entry): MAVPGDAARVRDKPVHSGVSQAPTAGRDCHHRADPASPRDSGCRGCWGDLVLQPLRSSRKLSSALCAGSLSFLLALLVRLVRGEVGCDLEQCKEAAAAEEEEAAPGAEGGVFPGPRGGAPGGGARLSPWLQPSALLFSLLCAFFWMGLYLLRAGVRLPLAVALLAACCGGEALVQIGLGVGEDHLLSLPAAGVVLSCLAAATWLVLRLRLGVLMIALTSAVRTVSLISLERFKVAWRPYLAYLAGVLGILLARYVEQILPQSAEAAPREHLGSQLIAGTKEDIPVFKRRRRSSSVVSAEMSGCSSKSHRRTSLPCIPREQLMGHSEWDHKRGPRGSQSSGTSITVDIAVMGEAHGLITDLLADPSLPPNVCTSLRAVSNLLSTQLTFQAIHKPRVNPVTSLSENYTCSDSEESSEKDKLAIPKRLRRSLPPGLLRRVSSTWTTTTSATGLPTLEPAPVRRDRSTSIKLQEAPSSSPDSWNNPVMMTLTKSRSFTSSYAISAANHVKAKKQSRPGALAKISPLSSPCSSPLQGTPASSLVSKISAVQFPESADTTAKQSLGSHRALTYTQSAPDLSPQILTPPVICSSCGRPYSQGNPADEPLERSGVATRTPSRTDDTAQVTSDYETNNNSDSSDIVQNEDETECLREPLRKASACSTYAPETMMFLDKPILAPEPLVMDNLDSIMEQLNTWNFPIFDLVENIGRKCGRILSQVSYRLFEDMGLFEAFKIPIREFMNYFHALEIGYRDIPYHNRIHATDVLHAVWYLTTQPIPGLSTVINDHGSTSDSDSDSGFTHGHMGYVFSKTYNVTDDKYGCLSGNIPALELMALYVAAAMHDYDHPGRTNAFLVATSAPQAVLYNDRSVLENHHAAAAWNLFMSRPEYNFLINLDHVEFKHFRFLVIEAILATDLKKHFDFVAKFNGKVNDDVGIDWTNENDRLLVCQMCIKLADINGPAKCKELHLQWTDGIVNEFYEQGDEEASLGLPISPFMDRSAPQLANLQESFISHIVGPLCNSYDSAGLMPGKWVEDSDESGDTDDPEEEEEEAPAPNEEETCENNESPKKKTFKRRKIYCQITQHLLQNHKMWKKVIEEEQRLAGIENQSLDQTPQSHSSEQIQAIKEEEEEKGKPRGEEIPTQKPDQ

[16] = biological target: 3',5'-cyclic-AMP phosphodiesterase 4D (Homo sapiens) (UniProt Q08499); assay: Binding affinity to human PDE4D2 at 10 uM
[17] = biological target: Kinesin-like protein KIF11 (Homo sapiens) (UniProt P52732); assay: Binding affinity to human Eg5 at 10 uM
[18] = biological target: Histone deacetylase 4 (Homo sapiens) (UniProt P56524); assay: Binding affinity to human HDAC4 at 10 uM
[19] = test system: Mus musculus; assay: In-vivo inhibition of COX in mouse plasma assessed as decrease in TXA2 level at 1 mg/kg, iv after 1 hr by LC-MS/MS analysis; format: functional, organism-based
[20] = test system: Mus musculus; assay: In-vivo inhibition of FAAH in mouse plasma assessed as increase in OEA level at 1 mg/kg, iv after 1 hr by LC-MS/MS analysis; format: functional, organism-based
[21] = biological target: Adrenergic receptor alpha-2 (Homo sapiens) (UniProt P08913+P18825+P18089); assay: Binding affinity to alpha-2 adrenergic receptor (unknown origin) at 10 uM by radioligand binding assay
[22] = biological target: Beta-2 adrenergic receptor (Homo sapiens) (UniProt P07550); assay: Binding affinity to beta-2 adrenergic receptor (unknown origin) at 10 uM by radioligand binding assay
[23] = biological target: B2 bradykinin receptor (Homo sapiens) (UniProt P30411); assay: Binding affinity to human bradykinin 2 receptor at 10 uM by radioligand binding assay
B2 bradykinin receptor (Homo sapiens), sequence (P30411 whole entry): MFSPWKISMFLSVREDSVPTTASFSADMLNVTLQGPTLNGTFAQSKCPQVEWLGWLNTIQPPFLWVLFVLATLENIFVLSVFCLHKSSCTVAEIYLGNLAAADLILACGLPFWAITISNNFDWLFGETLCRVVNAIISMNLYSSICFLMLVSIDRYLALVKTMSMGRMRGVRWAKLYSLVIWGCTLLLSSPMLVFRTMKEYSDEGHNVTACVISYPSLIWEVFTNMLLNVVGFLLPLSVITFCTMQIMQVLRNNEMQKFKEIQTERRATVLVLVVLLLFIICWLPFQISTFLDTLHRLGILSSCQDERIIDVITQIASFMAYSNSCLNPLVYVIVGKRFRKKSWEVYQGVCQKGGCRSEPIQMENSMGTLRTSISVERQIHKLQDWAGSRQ

[24] = biological target: D(3) dopamine receptor (Homo sapiens) (UniProt P35462); assay: Binding affinity to human dopamine D3 receptor at 10 uM by radioligand binding assay
[25] = species on record: Homo sapiens; assay: Binding affinity to GABA receptor (unknown origin) at 10 uM by radioligand binding assay
[26] = biological target: Histamine H2 receptor (Homo sapiens) (UniProt P25021); assay: Binding affinity to human histamine H2 receptor at 10 uM by radioligand binding assay
[27] = biological target: Substance-P receptor (Homo sapiens) (UniProt P25103); assay: Binding affinity to human NK1 receptor at 10 uM by radioligand binding assay
[28] = biological target: Neuromedin-K receptor (Homo sapiens) (UniProt P29371); assay: Binding affinity to human neurokinin 3 receptor at 10 uM by radioligand binding assay
[29] = biological target: Peroxisome proliferator-activated receptor gamma (Homo sapiens) (UniProt P37231); assay: Binding affinity to human PPAR-gamma receptor at 10 uM by radioligand binding assay
[30] = biological target: Prostaglandin E2 receptor EP1 subtype (Homo sapiens) (UniProt P34995); assay: Binding affinity to human EP1 receptor at 10 uM by radioligand binding assay
[31] = biological target: Prostaglandin E2 receptor EP2 subtype (Homo sapiens) (UniProt P43116); assay: Binding affinity to human EP2 receptor at 10 uM by radioligand binding assay
Prostaglandin E2 receptor EP2 subtype (Homo sapiens), sequence (P43116 whole entry): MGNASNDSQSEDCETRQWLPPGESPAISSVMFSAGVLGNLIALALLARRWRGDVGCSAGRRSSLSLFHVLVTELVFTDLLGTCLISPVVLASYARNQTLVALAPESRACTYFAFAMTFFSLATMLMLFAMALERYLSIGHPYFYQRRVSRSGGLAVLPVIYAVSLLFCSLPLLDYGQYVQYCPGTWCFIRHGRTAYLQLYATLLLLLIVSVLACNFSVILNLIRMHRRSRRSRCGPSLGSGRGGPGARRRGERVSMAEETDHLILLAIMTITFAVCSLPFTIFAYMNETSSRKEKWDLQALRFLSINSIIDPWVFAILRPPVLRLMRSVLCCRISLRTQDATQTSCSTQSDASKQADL

[32] = biological target: Prostaglandin E2 receptor EP3 subtype (Homo sapiens) (UniProt P43115); assay: Binding affinity to human EP3 receptor at 10 uM by radioligand binding assay
[33] = biological target: Prostaglandin E2 receptor EP4 subtype (Homo sapiens) (UniProt P35408); assay: Binding affinity to human EP4 receptor at 10 uM by radioligand binding assay
Prostaglandin E2 receptor EP4 subtype (Homo sapiens), sequence (P35408 whole entry): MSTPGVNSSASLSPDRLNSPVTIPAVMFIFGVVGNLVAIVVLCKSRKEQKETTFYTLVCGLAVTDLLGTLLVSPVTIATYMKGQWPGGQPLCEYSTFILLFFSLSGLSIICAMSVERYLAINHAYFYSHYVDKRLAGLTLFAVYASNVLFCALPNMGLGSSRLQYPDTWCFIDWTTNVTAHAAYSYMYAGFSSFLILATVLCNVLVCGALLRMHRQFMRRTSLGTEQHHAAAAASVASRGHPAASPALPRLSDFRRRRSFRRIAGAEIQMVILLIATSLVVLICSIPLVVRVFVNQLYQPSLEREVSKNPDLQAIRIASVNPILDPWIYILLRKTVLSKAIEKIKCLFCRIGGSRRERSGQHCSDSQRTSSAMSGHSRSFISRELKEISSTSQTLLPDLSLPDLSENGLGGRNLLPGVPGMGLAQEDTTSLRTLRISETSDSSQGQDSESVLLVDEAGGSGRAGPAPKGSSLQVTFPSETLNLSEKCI

[34] = biological target: Prostacyclin receptor (Homo sapiens) (UniProt P43119); assay: Binding affinity to human IP receptor at 10 uM by radioligand binding assay
Prostacyclin receptor (Homo sapiens), sequence (P43119 whole entry): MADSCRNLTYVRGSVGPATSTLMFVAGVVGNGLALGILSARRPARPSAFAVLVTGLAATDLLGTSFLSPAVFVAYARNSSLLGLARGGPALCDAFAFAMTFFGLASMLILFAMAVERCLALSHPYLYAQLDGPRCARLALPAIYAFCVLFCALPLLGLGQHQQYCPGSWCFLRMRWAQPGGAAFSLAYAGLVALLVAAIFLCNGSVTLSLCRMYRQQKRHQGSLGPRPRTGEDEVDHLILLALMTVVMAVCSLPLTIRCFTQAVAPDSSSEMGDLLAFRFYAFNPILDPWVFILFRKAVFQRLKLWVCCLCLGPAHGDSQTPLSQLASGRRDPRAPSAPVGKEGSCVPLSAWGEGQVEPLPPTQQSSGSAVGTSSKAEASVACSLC

[35] = biological target: Proteinase-activated receptor 2 (Homo sapiens) (UniProt P55085); assay: Binding affinity to human PAR2 receptor at 10 uM by radioligand binding assay

`CCCCCCNC(=O)Oc1cccc(-c2ccc([C@H](C)C(=O)O)cc2F)c1` was tested, and the Activity [1] was -8.1%, the Activity [2] was -9.5% and the Activity [3] was -19.3%. It also gave an Activity [4] of 10.1%, an Activity [5] of -10.6% and an Activity [6] of -0.5%. It also gave an Activity [7] of 36%, an Activity [8] of 13.5% and an Activity [9] of -18.6%. The Activity [10] was -1.4%, the Activity [11] was -3% and the Activity [12] was -3.2%. The Activity [13] was 17.9%, the Activity [14] was -6.4% and the Activity [15] was 0.3%. The Activity [16] was 0.5%, the Activity [17] was 3.5% and the Activity [18] was -8.7%. For the same compound, the inhibition [19] was “Active”, the inhibition [20] was “Active” and the Activity [21] was -13.6%. For the same compound, the Activity [22] was -7.5%, the Activity [23] was -4.3% and the Activity [24] was 0.7%. For the same compound, the Activity [25] was -9.5%, the Activity [26] was -0.4% and the Activity [27] was -6.3%. It also gave an Activity [28] of 2.8%, an Activity [29] of 80.1% and an Activity [30] of -8.8%. For the same compound, the Activity [31] was 45%, the Activity [32] was 10.9% and the Activity [33] was 18.7%. For the same compound, the Activity [34] was 13.7% and the Activity [35] was 3.2%.
